Laboratory results from US8530471B2, “Therapeutic cyclopentane derivatives” (Allergan, Inc., priority 2008, dated 2013).

Tests used:
[1] = tested on: laser-induced hypertensive monkeys; assay: Intraocular pressure (IOP) reduction in laser-induced hypertensive monkeys; type: in vivo
[2] = tested on: normotensive dogs; assay: Intraocular pressure (IOP) reduction in normotensive dogs; type: in vivo
Description: Compounds such as those described in the above are tested in vivo to measure its ability to reduce intraocular pressure. Compound A is tested in normotensive dogs.
Compound B is tested in normotensive dogs.

[3] = tested on: lashes and adjacent hairs of patients; assay: Observation of lashes in glaucoma patients treated in only one eye; type: in vivo, human; details: glaucoma patient, unilateral treatment
Text: In the course of treating patients having glaucoma, treatment may only be appropriate in one eye. […] The lash appearance on the lids of the treated eyes would have appeared quite attractive if it represented a bilateral phenomenon. As a result of its asymmetric nature, the long lashes on one side could be construed as disturbing from a cosmetic standpoint. A systemic examination was preformed as a result of the asymmetric phenomenon. It soon became apparent that this altered appearance was not an isolated finding. […] Definite differences could be identified to varying degrees in the lashes and adjacent hairs of all patients who were taking the drug on a unilateral basis for longer than 6 months.
The changes in the lashes were apparent on gross inspection in several patients once attention was focused on the issue. In those with light colored hair and lashes, the differences were only seen easily with the aid of the high magnification and lighting capabilities of the slit lamp biomicroscope. In the course of glaucoma follow-up examination, attention is generally immediately focused on the eye itself. As a result of the high power magnification needed only one eye is seen at a time and the eye is seen at a high enough power that the lashes are not in focus. […]

| SMILES | intraocular pressure (IOP) change from baseline [1] | intraocular pressure (IOP) change from baseline [2] | lash appearance in treated eye versus non-treated eye [3] |
| --- | --- | --- | --- |
| CCCCCC(O)c1ccc([C@@H]2[C@@H](C/C=C\CCCC(=O)OCCO)[C@H](C#N)C[C@H]2O)cc1 (some centres unmarked) [Compound A] | decreases from baseline | decreases from baseline | – |
| CCCCCC(O)c1ccc([C@@H]2[C@@H](C/C=C\CCCC(=O)OCCN3CCOCC3)[C@H](C#N)C[C@H]2O)cc1 (some centres unmarked) [Compound B] | decreases from baseline | decreases from baseline | – |
| CCNC(=O)CCC/C=C\C[C@@H]1[C@@H](/C=C/[C@@H](O)CCc2ccccc2)[C@H](O)C[C@@H]1O [bimatoprost] | – | – | longer, thicker, and fuller in the treated eye than in the non-treated eye |
